IC50 data for 56 compounds are collected here from patent US12384753B2, “17-beta-hydroxysteroid dehydrogenase type 13 inhibitors and methods of use thereof” (Enanta Pharmaceuticals, Inc., priority 2021, dated 2025).

The structures appear in SMILES notation. A value given as a limit tells only on which side of the number the result lay.

Sequence of Recombinant human HSD17B13 (Q7Z5P4 20-300): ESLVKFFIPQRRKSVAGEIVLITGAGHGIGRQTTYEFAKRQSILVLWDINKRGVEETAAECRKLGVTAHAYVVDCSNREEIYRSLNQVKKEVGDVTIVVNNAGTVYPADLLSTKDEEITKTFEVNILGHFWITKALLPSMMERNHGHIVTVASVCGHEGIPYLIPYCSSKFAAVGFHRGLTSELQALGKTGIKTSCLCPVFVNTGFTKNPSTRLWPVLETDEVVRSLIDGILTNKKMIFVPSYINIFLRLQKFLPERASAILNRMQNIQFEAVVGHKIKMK

In the test the target is Recombinant human HSD17B13 (Homo sapiens (Human), UniProt Q7Z5P4). In words: HSD17B13 rapid-fire mass spectrometry assay (RF/MS assay). To be noted: inhibition of HSD17B13; LTB4 10 μM, NAD+ 0.5 mM, RT 3 h; IC50 ranges A-E. It is filed as biochemical. The method, boiled down:
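Sf9-expressed human HSD17B13 (80 nM) with 10 μM LTB4 and 0.5 mM NAD+, incubated with compound (0–100 μM) for 3 h at RT in Tris pH 7.5/BSA/Tween-20. After formic acid quench, LTB4 conversion to 12-oxo-LTB4 measured by RapidFire MS/MS. IC50 from normalised residual activity, duplicates.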
As for `COc1cc(C(=O)O)c(F)cc1NS(=O)(=O)c1coc(-c2ccc([C@H]3CC[C@H](C(F)(F)F)CC3)cc2C(F)(F)F)n1` [Example 679], the IC50 (in general, the concentration at which inhibition is half-maximal) is less than 100 nM.

In the case of `COc1cc(C(=O)O)c(OC)cc1NS(=O)(=O)c1csc(-c2ccc(C3CCC(C)(C)CC3)cc2C(F)(F)F)n1` [Example 680], the IC50 is less than 100 nM.

In the case of `COc1cc(C(=O)O)c(-c2ccccc2)cc1NS(=O)(=O)c1csc(-c2ccc(C3CCC(C)(C)CC3)cc2C(F)(F)F)n1` [Example 681], the IC50 lay within 1000 to 100000 nM.

With `COc1cc(C(=O)O)c(F)cc1N(C)S(=O)(=O)c1csc(-c2ccc(C3CCC(C)(C)CC3)cc2C(F)(F)F)n1` [Example 683], the concentration for half-maximal inhibition (IC50) lay in the range of 100 to 500 nM.

In the case of `COc1cc(C(=O)O)c(F)cc1NS(=O)(=O)c1cnn(-c2ccc(C3CCC(C)(C)CC3)cc2)c1` [Example 684], the IC50 was in the range of 100 to 500 nM. The same measure for `COc1cc(C(=O)O)c(F)cc1NS(=O)(=O)c1cnn(-c2ccc([C@H]3CC[C@@H](C(F)(F)F)CC3)cc2)c1` [Example 685, 2-fluoro-5-methoxy-4-((1-(4-((1s,4s)-4-(trifluoromethyl)cyclohexyl)phenyl)-1H-pyrazole)-4-sulfonamido)benzoic acid]: 100 to 500 nM; for `COc1cc(C(=O)O)c(F)cc1NS(=O)(=O)c1cnn(-c2ccc([C@H]3CC[C@H](C(F)(F)F)CC3)cc2)c1` [Example 686, 2-fluoro-5-methoxy-4-((1-(4-((1r,4r)-4-(trifluoromethyl)cyclohexyl)phenyl)-1H-pyrazole)-4-sulfonamido)benzoic acid]: 100 to 500 nM. Regarding `COc1cc(C(=O)O)c(F)cc1NS(=O)(=O)c1cnn(-c2ccc([C@H]3CC[C@@H](C(C)C)CC3)cc2)c1` [Example 687], the IC50 was 100 to 500 nM. As to `COc1cc(C(=O)O)c(F)cc1NS(=O)(=O)c1cnn(-c2ccc([C@H]3CC[C@H](C(C)C)CC3)cc2)c1` [Example 688], the IC50 fell in the range of 100 to 500 nM. Take `COc1cc(C(=O)O)c(F)cc1NS(=O)(=O)c1ccn(-c2ccc(C3CCCCC3)cc2)n1` [Example 689]: the IC50 lay in the range of 100 to 500 nM.

In the case of `COc1cc(C(=O)O)c(F)cc1NS(=O)(=O)c1ccn(-c2ccc(C3CCC(C)(C)CC3)cc2)n1` [Example 690], the IC50 is 100 to 500 nM. Under `COc1cc(C(=O)O)c(F)cc1NS(=O)(=O)c1ccn(-c2ccc([C@H]3CC[C@@H](C(F)(F)F)CC3)cc2)n1` [Example 691] stands 100 to 500 nM; under `COc1cc(C(=O)O)c(F)cc1NS(=O)(=O)c1ccn(-c2ccc([C@H]3CC[C@H](C(F)(F)F)CC3)cc2)n1` [Example 692], 100 to 500 nM. In the case of `COc1cc(C(=O)O)c(F)cc1NS(=O)(=O)c1ccn(-c2ccc([C@H]3CC[C@@H](C(C)C)CC3)cc2)n1` [Example 693], the IC50 was in the range of 100 to 500 nM. The same measure for `COc1cc(C(=O)O)c(F)cc1NS(=O)(=O)c1ccn(-c2ccc([C@H]3CC[C@H](C(C)C)CC3)cc2)n1` [Example 694]: less than 100 nM; for `COc1cc(C(=O)O)c(NC(C)=O)cc1NS(=O)(=O)c1csc(-c2ccc(C3CCC(C)(C)CC3)cc2C(F)(F)F)n1` [Example 695]: 1000 to 100000 nM. The same measure for `COc1cc(C(=O)O)c(Cl)cc1NS(=O)(=O)c1csc(-c2ccc(C3CCC(C)(C)CC3)cc2C(F)(F)F)n1` [Example 696]: 500 to 1000 nM; for `CN(C)c1cc(C(=O)O)ccc1NS(=O)(=O)c1csc(-c2ccc(C3CCC(C)(C)CC3)cc2C(F)(F)F)n1` [Example 697]: 1000 to 100000 nM. For the compound `COc1cc(C(=O)O)c(C2=CCCC2)cc1NS(=O)(=O)c1csc(-c2ccc(C3CCC(C)(C)CC3)cc2C(F)(F)F)n1` [Example 698], the IC50 is 1000 to 100000 nM. Consider `COc1cc(C(=O)O)c(C2CC2)cc1NS(=O)(=O)c1csc(-c2ccc(C3CCC(C)(C)CC3)cc2C(F)(F)F)n1` [Example 699], for which the IC50 lay in the range of 1000 to 100000 nM. Under `COc1cc(C(=O)O)c(F)cc1NS(=O)(=O)c1ccc2nc(-c3ccc(C4CCC(C)(C)CC4)cc3)sc2c1` [Example 700] stands 1000 to 100000 nM. The same measure for `COc1cc(C(=O)O)c(NS(C)(=O)=O)cc1NS(=O)(=O)c1csc(-c2ccc(C3CCC(C)(C)CC3)cc2C(F)(F)F)n1` [Example 701]: 1000 to 100000 nM; for `COc1cc(C(=O)O)c(C)cc1NS(=O)(=O)c1csc(-c2ccc(C3CCC(C)(C)CC3)cc2C(F)(F)F)n1` [Example 702]: 1000 to 100000 nM; for `COc1cc(C(=O)O)c(F)cc1NS(=O)(=O)c1ccc2sc(-c3ccc(C4CCCCC4)cc3C(F)(F)F)nc2c1` [Example 703]: 500 to 1000 nM. Under `COc1cc(C(=O)O)c(F)cc1NS(=O)(=O)c1ccc2sc(-c3ccc(C4CCC(C)(C)CC4)cc3C(F)(F)F)nc2c1` [Example 704] stands 100 to 500 nM. With `CNc1cc(C(=O)O)ccc1NS(=O)(=O)c1csc(-c2ccc(C3CCC(C)(C)CC3)cc2C(F)(F)F)n1` [Example 705], the IC50 is 1000 to 100000 nM. Regarding `CCCCC[C@H]1CC[C@H](c2ccc(-c3nc(S(=O)(=O)Nc4cc(F)c(C(=O)O)cc4OC)cs3)cc2)CC1` [Example 706], the IC50 was less than 100 nM. The same measure for `CCCCC[C@H]1CC[C@H](c2ccc(-c3nc(S(=O)(=O)Nc4ccc(C(=O)O)cc4OC)cs3)c(F)c2)CC1` [Example 707]: 100 to 500 nM; for `COc1cc(C(=O)O)ccc1NS(=O)(=O)c1cnc(-c2ccc(C3=CC(C)(C)CC(C)(C)C3)cc2)s1` [Example 708]: 100 to 500 nM; for `CCC[C@H]1CC[C@H](C2CC=C(c3ccc(-c4ncc(S(=O)(=O)Nc5ccc(C(=O)O)cc5OC)s4)cc3)CC2)CC1` (some centres unmarked) [Example 709]: 1000 to 100000 nM. The same measure for `COc1cc(C(=O)O)ccc1NS(=O)(=O)c1cnc(-c2ccc(-c3ccc(C(F)(F)F)c(C(F)(F)F)c3)cc2)s1` [Example 710]: 100 to 500 nM; for `COc1cc(C(=O)O)ccc1NS(=O)(=O)c1cnc(-c2ccc(C3=C[C@H]4CC[C@]3(C)C4(C)C)cc2)s1` [Example 711]: 100 to 500 nM. As for `COc1cc(C(=O)O)ccc1NS(=O)(=O)c1cnc(-c2ccc([C@H]3CC[C@@H](C(F)(F)F)CC3)cc2)s1` [Example 712], the IC50 is less than 100 nM. On to `COc1cc(C(=O)O)ccc1NS(=O)(=O)c1cnc(-c2ccc([C@H]3CC[C@H](C(F)(F)F)CC3)cc2)s1` [Example 713], for which the IC50 is less than 100 nM. The same measure for `COc1cc(C(=O)O)ccc1NS(=O)(=O)c1cnc(-c2ccc(-c3ccc(C(F)(F)C(F)(F)F)cc3)cc2)s1` [Example 714]: 100 to 500 nM; for `CCC[C@H]1CC[C@H](c2ccc(-c3nc(S(=O)(=O)Nc4cc(F)c(C(=O)O)cc4OC)cs3)cc2)CC1` [Example 715]: less than 100 nM. Under `COc1cc(C(=O)O)ccc1NS(=O)(=O)c1csc(-c2ccc(C3=CCC(C(F)(F)F)CC3)cc2)n1` (centres unmarked) [Example 716] stands less than 100 nM.

On to `COc1cc(C(=O)O)c(F)cc1NS(=O)(=O)c1cnc(-c2ccc(C3=CCC(C(C)(C)C)CC3)cc2)s1` (centres unmarked) [Example 717], for which the IC50 is less than 100 nM. Under `COc1cc(C(=O)O)ccc1NS(=O)(=O)c1cnc(-c2ccc(-c3ccc(C(F)(F)F)cc3)cc2)s1` [Example 718] stands less than 100 nM.

Turning to `COc1cc(C(=O)O)c(F)cc1NS(=O)(=O)c1cnc(-c2ccc(C3=CCC(C(F)(F)F)CC3)cc2)s1` (centres unmarked) [Example 719], the IC50 was less than 100 nM. The same measure for `COc1cc(C(=O)O)c(F)cc1NS(=O)(=O)c1cnc(-c2ccc([C@H]3CC[C@@H](C(C)(C)C)CC3)cc2)s1` [Example 720]: 100 to 500 nM; for `COc1cc(C(=O)O)c(F)cc1NS(=O)(=O)c1cnc(-c2ccc([C@H]3CC[C@H](C(C)(C)C)CC3)cc2)s1` [Example 721]: 100 to 500 nM; for `COc1cc(C(=O)O)ccc1NS(=O)(=O)c1cnc(-c2ccc(C3=CC4CCC3C4)cc2)s1` (centres unmarked) [Example 722]: 100 to 500 nM.

As to `CC[C@H]1CC[C@H](c2ccc(-c3nc(S(=O)(=O)Nc4cc(F)c(C(=O)O)cc4OC)cs3)cc2)CC1` [Example 723], the IC50 was less than 100 nM. The same measure for `COc1cc(C(=O)O)c(F)cc1NS(=O)(=O)c1cnc(-c2ccc([C@H]3CC[C@@H](C(F)(F)F)CC3)cc2)s1` [Example 724]: less than 100 nM; for `COc1cc(C(=O)O)c(F)cc1NS(=O)(=O)c1cnc(-c2ccc([C@H]3CC[C@H](C(F)(F)F)CC3)cc2)s1` [Example 725]: less than 100 nM; for `COc1cc(C(=O)O)c(F)cc1NS(=O)(=O)c1cnc(-c2ccc(C3=CC=C(F)CC3)cc2)s1` [Example 726]: 100 to 500 nM. For the compound `COc1cc(C(=O)O)c(F)cc1NS(=O)(=O)c1cnc(-c2ccc(C3=CCC(F)(F)CC3)cc2)s1` [Example 727], the IC50 fell in the range of 100 to 500 nM.

For `COc1cc(C(=O)O)c(F)cc1NS(=O)(=O)c1cnc(-c2ccc(C3=CCC(C)(C)CC3)cc2)s1` [Example 728], the IC50 was less than 100 nM. The same measure for `COc1cc(C(=O)O)c(F)cc1NS(=O)(=O)c1cnc(-c2ccc([C@H]3CC[C@@H](C(C)C)CC3)cc2)s1` [Example 729]: 100 to 500 nM; for `COc1cc(C(=O)O)c(F)cc1NS(=O)(=O)c1csc(-c2ccc([C@H]3CC[C@H](C(C)C)CC3)cc2)n1` [Example 730]: less than 100 nM. Under `COc1cc(C(=O)O)c(F)cc1NS(=O)(=O)c1csc(-c2ccc(-c3ccc(C45CC6C[C@H](C4)C[C@H](C6)C5)cc3)cc2)n1` [Example 731] stands less than 100 nM; under `COc1cc(C(=O)O)c(F)cc1NS(=O)(=O)c1csc(-c2ccc(C34CC5C[C@H](C3)C[C@H](C5)C4)cc2)n1` [Example 732], 100 to 500 nM. The same measure for `CCC[C@H]1CC[C@H]([C@H]2CC[C@@H](c3nc(S(=O)(=O)Nc4cc(F)c(C(=O)O)cc4OC)cs3)CC2)CC1` [Example 733]: 100 to 500 nM; for `CCC[C@H]1CC[C@H]([C@H]2CC[C@H](c3nc(S(=O)(=O)Nc4cc(F)c(C(=O)O)cc4OC)cs3)CC2)CC1` [Example 734]: 100 to 500 nM.

On to `COc1cc(C(=O)O)c(F)cc1NS(=O)(=O)c1csc(-c2ccc(-c3ccc(C(F)(F)C(F)(F)F)cc3)cc2)n1` [Example 735], for which the IC50 was 100 to 500 nM.
